Assay results taken from ChEMBL document CHEMBL4266058, “2-Aminoadipic Acid-C(O)-Glutamate Based Prostate-Specific Membrane Antigen Ligands for Potential Use as Theranostics” (ACS Med Chem Lett, 2018).

Each compound was assayed against Glutamate carboxypeptidase 2 (Homo sapiens, UniProt Q04609) (assay: Inhibition of recombinant human PSMA using [3H]NAAG as substrate preincubated for 15 mins followed by substrate addition measured after 20 mins by liquid scintillation method).
Chain of Glutamate carboxypeptidase 2 (Q04609 whole entry): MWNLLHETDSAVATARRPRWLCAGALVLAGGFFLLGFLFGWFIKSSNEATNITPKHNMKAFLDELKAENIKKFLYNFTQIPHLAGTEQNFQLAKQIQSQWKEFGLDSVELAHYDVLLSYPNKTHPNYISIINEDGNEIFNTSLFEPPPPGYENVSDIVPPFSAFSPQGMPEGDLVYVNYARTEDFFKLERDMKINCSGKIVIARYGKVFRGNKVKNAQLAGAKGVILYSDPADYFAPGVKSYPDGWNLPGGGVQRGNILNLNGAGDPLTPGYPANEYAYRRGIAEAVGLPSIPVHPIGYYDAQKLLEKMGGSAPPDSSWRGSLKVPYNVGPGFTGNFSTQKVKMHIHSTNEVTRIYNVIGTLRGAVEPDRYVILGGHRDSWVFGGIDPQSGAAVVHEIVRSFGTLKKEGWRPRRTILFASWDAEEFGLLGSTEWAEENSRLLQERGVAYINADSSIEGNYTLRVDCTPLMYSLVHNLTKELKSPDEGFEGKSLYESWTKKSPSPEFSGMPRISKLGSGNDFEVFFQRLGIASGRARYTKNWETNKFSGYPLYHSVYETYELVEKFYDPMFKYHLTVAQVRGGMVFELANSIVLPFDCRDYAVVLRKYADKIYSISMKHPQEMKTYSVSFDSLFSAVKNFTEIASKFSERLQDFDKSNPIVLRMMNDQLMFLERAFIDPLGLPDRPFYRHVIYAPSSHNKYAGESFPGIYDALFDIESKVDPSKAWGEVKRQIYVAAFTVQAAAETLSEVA
Work on `O=C(O)CC[C@H](NC(=O)N[C@@H](CCCC(=O)NCc1ccccc1F)C(=O)O)C(=O)O` yielded an IC50 of 2.11 nM. Work on `O=C(O)CC[C@H](NC(=O)N[C@@H](CCCC(=O)NCCNC(=O)c1ccc(F)nc1)C(=O)O)C(=O)O` yielded an IC50 of 1.11 nM. Work on `CN(Cc1ccc(F)cc1)C(=O)CCC[C@H](NC(=O)N[C@@H](CCC(=O)O)C(=O)O)C(=O)O` yielded an IC50 of 0.64 nM. `O=C(O)CC[C@H](NC(=O)N[C@@H](CCCC(=O)NCCNC(=O)c1ccc(F)cc1)C(=O)O)C(=O)O` showed an IC50 of 0.94 nM. `O=C(O)CC[C@H](NC(=O)N[C@@H](CCCC(=O)N(CCNC(=O)c1ccc(F)nc1)c1ccccc1)C(=O)O)C(=O)O` showed an IC50 of 0.13 nM. In the case of `CN(C(=O)CCC[C@H](NC(=O)N[C@@H](CCC(=O)O)C(=O)O)C(=O)O)c1ccc(F)nc1`, the IC50 is reported as 0.075 nM. Work on `C[C@H](NC(=O)CCC[C@H](NC(=O)N[C@@H](CCC(=O)O)C(=O)O)C(=O)O)c1ccc(F)cc1` yielded an IC50 of 5.24 nM. Work on `O=C(O)CC[C@H](NC(=O)N[C@@H](CCCC(=O)Nc1cccc(F)c1)C(=O)O)C(=O)O` yielded an IC50 of 0.28 nM. `C[C@H](NC(=O)CCC[C@H](NC(=O)N[C@@H](CCC(=O)O)C(=O)O)C(=O)O)c1ccc(F)nc1` was tested, and the IC50 was 4.46 nM. `O=C(O)CC[C@H](NC(=O)N[C@@H](CCCC(=O)NCc1cccc(F)c1)C(=O)O)C(=O)O` showed an IC50 of 2.91 nM. Work on `C[C@@H](NC(=O)CCC[C@H](NC(=O)N[C@@H](CCC(=O)O)C(=O)O)C(=O)O)c1ccc(F)cc1` yielded an IC50 of 5.44 nM. `O=C(O)CC[C@H](NC(=O)N[C@@H](CCCC(=O)NCc1ccc(F)cc1)C(=O)O)C(=O)O` gave an IC50 of 2.32 nM. In the case of `CN(C(=O)CCC[C@H](NC(=O)N[C@@H](CCC(=O)O)C(=O)O)C(=O)O)c1ccc(F)cc1`, the IC50 is reported as 0.2 nM. `O=C(O)CC[C@H](NC(=O)N[C@@H](CCCC(=O)NC(c1ccc(F)cc1)c1ccc(F)cc1)C(=O)O)C(=O)O` showed an IC50 of 1.19 nM. For `CN(Cc1cccc(F)c1)C(=O)CCC[C@H](NC(=O)N[C@@H](CCC(=O)O)C(=O)O)C(=O)O`, the IC50 was 0.46 nM. With `O=C(O)CC[C@H](NC(=O)N[C@@H](CCCC(=O)Nc1ccc(F)nc1)C(=O)O)C(=O)O` the IC50 was 0.99 nM. In the case of `O=C(O)CC[C@H](NC(=O)N[C@@H](CCCC(=O)N1CCN(c2ccc(F)cc2)CC1)C(=O)O)C(=O)O`, the IC50 is reported as 1.31 nM. Compound `O=C(O)CC[C@H](NC(=O)N[C@@H](CCCC(=O)N(CCNC(=O)c1ccc(F)cc1)c1ccccc1)C(=O)O)C(=O)O` has an IC50 of 0.15 nM. `O=C(O)CC[C@H](NC(=O)N[C@@H](CCCC(=O)Nc1ccc(F)cc1)C(=O)O)C(=O)O` showed an IC50 of 0.35 nM.
